Measurements taken from paper PMC4281354, “The opioid receptor pharmacology of GSK1521498 compared to other ligands with differential effects on compulsive reward-related behaviours” (Psychopharmacology, 2014).
pEC50, pKi: −log10 of the molar value. Structures can show the parent of a compound that is named as a salt. Where two headings read alike, the source gives them in different places.

Key:
human NOPr = human NOPr (Homo sapiens, UniProt P41146); test: Antagonism of nociceptin-stimulated [35S]GTPγS binding, CHO membranes overexpressing NOPr (SPA, antagonist mode); type: biochemical
human NOPr, sequence (P41146 whole entry): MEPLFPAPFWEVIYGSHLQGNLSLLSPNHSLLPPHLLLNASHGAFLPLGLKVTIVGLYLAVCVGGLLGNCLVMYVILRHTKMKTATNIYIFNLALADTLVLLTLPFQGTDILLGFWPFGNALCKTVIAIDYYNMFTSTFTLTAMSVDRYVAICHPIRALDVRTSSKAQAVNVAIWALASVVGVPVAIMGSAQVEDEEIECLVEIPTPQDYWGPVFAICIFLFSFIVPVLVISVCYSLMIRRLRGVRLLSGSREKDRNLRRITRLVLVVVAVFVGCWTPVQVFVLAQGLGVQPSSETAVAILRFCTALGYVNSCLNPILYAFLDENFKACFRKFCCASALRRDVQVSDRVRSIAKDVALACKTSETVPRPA

human DOPr = human DOPr (Homo sapiens, UniProt P41143); test: Antagonism of Met-Enk-stimulated [35S]GTPγS binding, CHO membranes overexpressing DOPr (SPA, antagonist mode); type: biochemical
human DOPr, sequence (P41143 whole entry): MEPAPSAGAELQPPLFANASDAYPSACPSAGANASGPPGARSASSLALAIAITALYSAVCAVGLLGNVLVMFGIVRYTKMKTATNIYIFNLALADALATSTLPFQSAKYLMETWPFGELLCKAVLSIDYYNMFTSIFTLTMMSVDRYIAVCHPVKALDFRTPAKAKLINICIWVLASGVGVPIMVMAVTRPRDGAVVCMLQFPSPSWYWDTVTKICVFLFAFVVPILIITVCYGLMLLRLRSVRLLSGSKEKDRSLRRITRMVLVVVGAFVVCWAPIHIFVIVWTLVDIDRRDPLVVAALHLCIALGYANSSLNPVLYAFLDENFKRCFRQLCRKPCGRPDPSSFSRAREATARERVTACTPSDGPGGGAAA

MOPr [1] = biological target: T1, MOPr (Homo sapiens, UniProt P35372); test: Antagonism of Met-Enk-stimulated [35S]GTPγS binding, CHO membranes overexpressing MOPr (SPA, antagonist mode); type: biochemical
T1 sequence (P35372 whole entry): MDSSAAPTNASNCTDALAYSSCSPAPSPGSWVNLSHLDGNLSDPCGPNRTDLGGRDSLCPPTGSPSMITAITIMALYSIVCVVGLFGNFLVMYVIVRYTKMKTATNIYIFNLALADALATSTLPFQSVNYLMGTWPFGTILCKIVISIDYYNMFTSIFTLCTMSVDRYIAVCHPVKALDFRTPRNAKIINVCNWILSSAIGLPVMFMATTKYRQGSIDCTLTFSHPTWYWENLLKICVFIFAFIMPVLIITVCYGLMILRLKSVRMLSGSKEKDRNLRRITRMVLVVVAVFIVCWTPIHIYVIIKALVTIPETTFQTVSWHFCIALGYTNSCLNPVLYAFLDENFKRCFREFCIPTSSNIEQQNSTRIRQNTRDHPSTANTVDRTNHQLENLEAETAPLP

human KOPr = human KOPr (Homo sapiens, UniProt P41145); test: Antagonism of dynorphin-stimulated [35S]GTPγS binding, CHO membranes overexpressing KOPr (SPA, antagonist mode); type: biochemical
human KOPr, sequence (P41145 whole entry): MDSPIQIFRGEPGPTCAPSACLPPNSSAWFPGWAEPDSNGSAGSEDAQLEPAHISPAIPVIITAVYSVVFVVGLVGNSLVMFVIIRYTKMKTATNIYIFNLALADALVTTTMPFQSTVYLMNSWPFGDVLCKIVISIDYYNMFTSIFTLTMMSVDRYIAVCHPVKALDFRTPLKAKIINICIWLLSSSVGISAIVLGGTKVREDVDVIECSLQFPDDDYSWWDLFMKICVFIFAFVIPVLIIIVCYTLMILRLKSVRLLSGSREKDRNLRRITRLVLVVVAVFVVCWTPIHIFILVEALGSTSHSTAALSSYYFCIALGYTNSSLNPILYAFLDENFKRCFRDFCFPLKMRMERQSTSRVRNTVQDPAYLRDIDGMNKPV

MOPr [2] = biological target: T1, MOPr; test: [3H]naloxone dissociation kinetics from MOPr, MOPr-HEK293 membranes; type: binding; details: drug 1 μM
MOPr [3] = biological target: T1, MOPr; test: [3H]naloxone competition displacement binding, MOPr-HEK293 membranes
MOPr [4] = biological target: T1, MOPr; test: Basal [35S]GTPγS binding, membranes from CHO cells expressing a low level of MOPr; type: biochemical; details: 1 μM, CHO MOPr approximately 70 fmol per milligram of protein
heroin seeking = tested on: heroin seeking; parameters: method as in Giuliano et al. [2013]; details: ref Giuliano et al. [2013]; cited from earlier work
MOPr [5] = biological target: T1, MOPr; test: Basal [35S]GTPγS binding, CHO membranes overexpressing MOPr (agonist mode); type: biochemical
cocaine seeking = tested on: cocaine seeking; parameters: method as in Giuliano et al. [2013]; details: ref Giuliano et al. [2013]; cited from earlier work
[6] = biological target: MOPr in mouse brain membranes (Mus musculus, UniProt P42866); test: Basal [35S]GTPγS binding, whole mouse brain membranes (naive or morphine-pretreated mice); type: biochemical; details: 1 μM
MOPr in mouse brain membranes, sequence (P42866 whole entry): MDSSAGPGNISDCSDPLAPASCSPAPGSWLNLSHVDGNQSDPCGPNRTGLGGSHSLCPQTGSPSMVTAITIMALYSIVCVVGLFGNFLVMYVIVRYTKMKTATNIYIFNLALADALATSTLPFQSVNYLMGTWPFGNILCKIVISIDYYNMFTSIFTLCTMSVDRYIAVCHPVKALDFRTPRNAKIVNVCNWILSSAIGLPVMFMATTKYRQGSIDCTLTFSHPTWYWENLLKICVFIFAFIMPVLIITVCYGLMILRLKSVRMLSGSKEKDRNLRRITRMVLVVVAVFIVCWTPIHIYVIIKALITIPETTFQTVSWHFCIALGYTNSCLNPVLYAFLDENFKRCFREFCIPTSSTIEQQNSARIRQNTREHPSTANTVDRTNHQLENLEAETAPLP

[7] = tested on: K+ current in rat brain neurons; parameters: method as in Bailey et al. [2009]; details: ref Bailey et al. [2009], read-out: EC50 for activation of the K+ current; cited from earlier work
[8] = from fpKi, GTPγS antagonist mode

Oc1ccc2c3c1O[C@H]1[C@H](O)CC[C@@]4(O)[C@@H](C2)N(CC2CC2)CC[C@]314 [6β-Naltrexol, 6-β-naltrexol]
Antagonist potency (fpKi) NOPr (human NOPr; vs nociceptin, CHO cells overexpressing NOPr, mean ± SEM of three experiments): <5

Fc1cc(-c2cccc(-c3nc[nH]n3)c2)cc(F)c1CNC1Cc2ccccc2C1.O=P(O)(O)O [GSK1521498, N-{[3,5-difluoro-3′-(1H-1,2,4-triazol-3-yl)-4-biphenylyl]methyl}-2,3-dihydro-1H-inden-2-amine phosphate (1:1)]
selectivity for MOPr over DOPr (human DOPr; [8]): 14 fold
Ki (human DOPr; vs Met-Enk, CHO cells overexpressing DOPr, mean ± SEM of three experiments, read-out: Antagonist potency (fpKi) DOPr (converted)): 3.16 nM
completeness of inhibition of the agonist response at MOPr (MOPr [1]; Met-Enk-stimulated GTPγS binding, CHO overexpressing MOPr): completely antagonize
Ki (MOPr [1]; vs Met-Enk, CHO cells overexpressing MOPr, mean ± SEM of three experiments, read-out: Antagonist potency (fpKi) MOPr (converted)): 0.229 nM
Ki (human NOPr; vs nociceptin, CHO cells overexpressing NOPr, mean ± SEM of three experiments, read-out: Antagonist potency (fpKi) NOPr (converted)): 257 nM
selectivity for MOPr over KOPr (human KOPr; [8]): 14 fold
Ki (human KOPr; vs dynorphin, CHO cells overexpressing KOPr, mean ± SEM of three experiments, read-out: Antagonist potency (fpKi) KOPr (converted)): 3.31 nM
rate of 3H-naloxone dissociation in the presence of drug (MOPr [2]): unchanged
maximum displacement of specific 3H-naloxone binding (MOPr [3]; HEK293 MOPr membranes): 100%
Ki (MOPr [3]; read-out: Affinity of binding (pKi) to MOPr (converted)): 0.417 nM
effect on basal level of GTPγS binding (MOPr [4]): did not modify
greater reduction in heroin seeking compared to naltrexone 3 mg/kg (heroin seeking): 5.5 fold
inhibition of basal [35S]GTPγS binding (MOPr [5]; CHO membranes highly overexpressing MOPr (Bmax 14,500 fmol/mg protein)): up to 18%
agonist activity when administered alone (MOPr [5]; at any of the opioid receptors, concentrations up to 100 μM): did not show agonist activity
concentrations producing a significant inhibition of basal [35S]GTPγS binding (MOPr [5]; p < 0.001, ANOVA): greater than 0.4 nM
greater reduction in cocaine seeking compared to naltrexone 3 mg/kg (cocaine seeking): 2.5 fold
effect on basal [35S]GTPγS binding, naïve mice ([6]; brain membranes from naïve mice): did not reduce
effect on basal [35S]GTPγS binding, severe morphine pre-treatment ([6]; brain membranes, 75 mg morphine pellet sc 3 days): very slight but statistically significant inhibition
effect on basal [35S]GTPγS binding, acute morphine pre-treatment ([6]; brain membranes, morphine 100 mg/kg sc 4 h before sacrifice): did not reduce
effect on basal [35S]GTPγS binding, moderate morphine pre-treatment ([6]; brain membranes, sc morphine at 8-h intervals for 3 days): did not reduce

C=C1CC[C@@]2(O)[C@H]3Cc4ccc(O)c5c4[C@@]2(CCN3CC2CC2)[C@H]1O5 [Nalmefene, nalmefene, reference compound]
completeness of inhibition of the agonist response at MOPr (MOPr [1]): did not produce complete inhibition
pKi (human NOPr): < 5.00
enhancement of basal [35S]GTPγS binding (MOPr [5]): 20%

CSCC[C@H](NC(=O)[C@H](Cc1ccccc1)NC(=O)CNC(=O)CNC(=O)[C@@H](N)Cc1ccc(O)cc1)C(=O)O [Met-Enk, methionine enkephalin acetate salt hydrate]
pEC50 [7]: 6.00
